# Publication PMC10138577, “Prenylated Flavonoids with Selective Toxicity against Human Cancers” (International Journal of Molecular Sciences, 2023)
# Experiments:
# [1] = system: LoVo/Dx doxorubicin-resistant human colorectal adenocarcinoma cells; test: In vitro antiproliferative assay (SRB), LoVo/Dx; format: cell-based; details: for IC50: Homo sapiens, LoVo/Dx, 72 h exposure, SRB, mean ± SD; for Calculated selectivity index SIB: IC50 BALB/3T3/IC50 LoVo/Dx; for Calculated selectivity index SIA: IC50 HLMEC/IC50 LoVo/Dx
# Text: (§1) The following established in vitro cell lines were applied: human breast adenocarcinoma (MCF-7 and SK-BR-3), human breast ductal carcinoma (T47D), human prostate adenocarcinoma (PC-3), human prostate carcinoma (Du145), human colorectal adenocarcinoma (HT-29 and LoVo), doxorubicin-resistant human colorectal adenocarcinoma (LoVo/Dx), human myelomonocytic leukemia (MV-4-11), human lung adenocarcinoma (A549), normal murine embryonic fibroblasts (BALB/3T3) and human lung microvascular endothelial (HLMEC). All the cell lines were obtained from the American Type Culture Collection (Rockville, MD, USA) except for LoVo and LoVo/DX, which were received from the Technical University of Gdańsk, Poland, courtesy of Prof. E. Borowski. All the cell lines were maintained in the Institute of Immunology and Experimental Therapy, Wroclaw, Poland. The cells were cultured in the following media: DMEM medium (BALB/3T3), Eagle medium (MCF-7, SK-BR-3, Du145), RPMI medium (HLMEC, MV-4-11) or RPMI 1640 + Opti-MEM (1:1) medium (A549, T47D, LoVo, LoVo/Dx, PC-3, HT-29). The DMEM medium was supplemented with 2 mM L-glutamine and 10% fetal bovine serum. The Eagle medium was supplemented with 4 mM L-glutamine, 10% fetal bovine serum, 1 mM sodium pyruvate for Du145 cells or 2 mM L-glutamine, 1% amino acids and 0.8 mg L^−1 of insulin for MCF-7 and SK-BR-3. The RPMI medium was supplemented with 2 mM L-glutamine, 1 mM sodium pyruvate and 10% fetal bovine serum. The RPMI 1640 + Opti-MEM (1:1) medium was supplemented with 2 mM L-glutamine, 5% fetal bovine serum (PC-3, A549) and 0.8 mg L^−1 insulin (T47D) or 1 mM sodium pyruvate (HT-29, LoVo, LoVoDx) and 0.1 ug/mL doxorubicin (LoVo/Dx). The media contained antibiotics: 100 µg mL^−1 streptomycin and 100 U mL^−1 penicillin. All the cell lines were incubated at 37 °C in a humid atmosphere saturated with 5% CO2.
# (§2) The details of this technique were described by Skehan et al.. After 72 h of incubation with the tested compounds, the cells were fixed in situ by gently adding cold 50% trichloroacetic acid—TCA (50 µL per well). The plates were incubated at 4 °C for 1 h and then washed five times with tap water and air-dried. Next, the cellular material fixed with TCA was stained by adding 50 µL of 0.4% sulforhodamine B dissolved in 1% acetic acid to each well and incubating the wells for 30 min at room temperature. The unbound dye was removed by washing the plates five times with 1% acetic acid, whereas the stain bound to the cells was extracted with 150 µL of 10 mM unbuffered Tris base for determination of the optical density at a 540 nm wavelength in a computer-interfaced, 96-well microtiter plate reader–Multiskan FC photometer (Thermo Scientific, Waltham, MA, USA). The background optical density was measured in the wells filled with culture medium, without the cells.
# (§3) Twenty-four hours before incubation with the tested compounds, the cells were seeded in 96-well plates (Sarstedt, Nümbrecht, Germany) at a density of 10^4 cells per well (10^3 cells per well for HLMEC) in 100 µL of culture medium. The analysis of the antiproliferative activity of the compounds was performed using sulforhothamine B (SRB) (for all the adherent cells) or 3-(4,5-dimethylthiazol-2-yl)-2,5-diphenyl tetrazolium bromide (MTT) (for the leukemia cells—MV-4-11). The details of this technique have been previously described by Skehan et al. and Antoszak et al.. An assay was performed after 72 h of exposure at varying concentrations (from 0.1 to 100 µg mL^−1) of xanthohumol (1), aurone (2) and the reference drug cisplatin. Each compound at each concentration was tested in a single experiment, which was repeated at least 3 times. […] The results were calculated as the IC50 (μM) (half maximal inhibitory concentration), i.e., the concentration of the tested agent that inhibits the proliferation of the cancer cell population by half. […]
# [2] = system: HT-29 human colorectal adenocarcinoma cells; test: In vitro antiproliferative assay (SRB), HT-29; format: cell-based; details: for IC50: HT-29, 72 h exposure, SRB, mean ± SD; for Calculated selectivity index SIB: IC50 BALB/3T3/IC50 HT-29; for Calculated selectivity index SIA: IC50 HLMEC/IC50 HT-29
# Text: as §1, §2, §3
# [3] = system: LoVo human colorectal adenocarcinoma cells; test: In vitro antiproliferative assay (SRB), LoVo; format: cell-based; details: for IC50: Homo sapiens, LoVo, 72 h exposure, SRB, mean ± SD; for Calculated selectivity index SIB: IC50 BALB/3T3/IC50 LoVo; for Calculated selectivity index SIA: IC50 HLMEC/IC50 LoVo
# Text: as §1, §2, §3
# [4] = system: SK-BR-3 human breast adenocarcinoma cells; test: In vitro antiproliferative assay (SRB), SK-BR-3; format: cell-based; details: for IC50: Homo sapiens, SK-BR-3, 72 h exposure, SRB, mean ± SD; for Calculated selectivity index SIB: IC50 BALB/3T3/IC50 SK-BR-3; for Calculated selectivity index SIA: IC50 HLMEC/IC50 SK-BR-3
# Text: as §1, §2, §3
# [5] = system: PC-3 human prostate adenocarcinoma cells; test: In vitro antiproliferative assay (SRB), PC-3; format: cell-based; details: for IC50: Homo sapiens, PC-3, 72 h exposure, SRB, mean ± SD; for Calculated selectivity index SIB: IC50 BALB/3T3/IC50 PC-3; for Calculated selectivity index SIA: IC50 HLMEC/IC50 PC-3
# Text: as §1, §2, §3
# [6] = system: human lung microvascular endothelial (HLMEC) cells; test: In vitro cytotoxicity against normal cells (SRB), HLMEC; format: cell-based; details: for IC50: Homo sapiens, HLMEC normal cell line, 72 h exposure, SRB, mean ± SD, read-out: Antiproliferative activity IC50
# Text: as §1
# (§4) The details of this technique were described by Skehan et al.. […] The unbound dye was removed by washing the plates five times with 1% acetic acid, whereas the stain bound to the cells was extracted with 150 µL of 10 mM unbuffered Tris base for determination of the optical density at a 540 nm wavelength in a computer-interfaced, 96-well microtiter plate reader–Multiskan FC photometer (Thermo Scientific, Waltham, MA, USA). The background optical density was measured in the wells filled with culture medium, without the cells.
# Twenty-four hours before incubation with the tested compounds, the cells were seeded in 96-well plates (Sarstedt, Nümbrecht, Germany) at a density of 10^4 cells per well (10^3 cells per well for HLMEC) in 100 µL of culture medium. […] The results were calculated as the IC50 (μM) (half maximal inhibitory concentration), i.e., the concentration of the tested agent that inhibits the proliferation of the cancer cell population by half. […]
# [7] = system: MCF-7 human breast adenocarcinoma cells; test: In vitro antiproliferative assay (SRB), MCF-7; format: cell-based; details: for IC50: Homo sapiens, MCF7, MCF-7, 72 h exposure, SRB, mean ± SD; for Calculated selectivity index SIB: IC50 BALB/3T3/IC50 MCF-7; for Calculated selectivity index SIA: IC50 HLMEC/IC50 MCF-7
# Text: as §1, §2, §3
# [8] = system: breast cancer cell lines MCF-7, SK-BR-3, T47D; test: Selectivity towards all breast cancer cell lines tested (SRB); format: cell-based, human; details: IC50 BALB/3T3/IC50 of MCF-7, SK-BR-3, T47D
# Protocol: The selective effect of a drug can be expressed by the selectivity index (SI), which is determined by comparing the cytotoxic activity of each compound against each cancer cell line with the activity against a normal cell line. The SI was calculated as the IC50 ratio for a normal cell line (SIA—HLMEC; SIB—BALB/3T3) to the IC50 value for the corresponding tumor cell line using the following equation:(1) SI=IC50 for normal cell line/IC50 for cancerous cell line […]
# as §4, with “cells. […]” for “cells.”
IC50 [1] [µM],"IC50 ([2]; Homo sapiens, HT-29, 72 h) [µM]",IC50 [3] [µM],IC50 [4] [µM],IC50 [5] [µM],IC50 [7] [µM],Structure (SMILES),Calculated selectivity index SIB [1],Calculated selectivity index SIA [1],Calculated selectivity index SIB [2],Calculated selectivity index SIA [2],Calculated selectivity index SIB [3],Calculated selectivity index SIA [3],Calculated selectivity index SIB [4],Calculated selectivity index SIA [4],Calculated selectivity index SIB [5],Calculated selectivity index SIA [5],IC50 [6] [µM],Calculated selectivity index SIB [7],Calculated selectivity index SIA [7],also measured
7.28 ± 1.22,> 50,5.53 ± 1.64,12.6 ± 2.28,9.15 ± 0.88,9.29 ± 0.27,"COc1cc(O)c(CC=C(C)C)c(O)c1C(=O)/C=C/c1ccc(O)cc1 [compound 1, 3′-[3″,3″-dimethylallyl]-2′,4′,4-trihydroxy-6′-methoxychalcone]",2.70,4.99,0.21,0.40,3.55,6.56,1.56,2.89,2.14,3.97,36.3 ± 6.7,2.11,3.91,IC50 ([2]; listed as xanthohumol (1)): 91.3 ± 8.92 µM
7.83 ± 2.82,> 50,8.85 ± 4.85,11.3 ± 0.17,19.1 ± 9.27,9.28 ± 0.5,"COc1cc(O)c(CC=C(C)C)c2c1C(=O)/C(=C/c1ccc(O)cc1)O2 [compound 2, (Z)-6,4′-dihydroxy-4-methoxy-7-prenylaurone]",5.68,6.75,0.72,0.85,5.02,5.97,3.93,4.67,2.33,2.77,52.8 ± 8.03,4.79,5.69,"Calculated selectivity index SIB ([1]; listed as aurone (2)): 5.97; IC50 ([2]; listed as aurone (2)): 62.1 ± 16.5 µM; reduction of cytotoxic effect against normal cells relative to xanthohumol (1) ([6]; HLMEC, p < 0.05): 1.5 fold; selectivity index SIB, range over breast cancer cell lines [8]: 3.93–5.50"
